Data taken from patent publication US20260021051A1, “PHARMACEUTICAL FORMULATIONS” (VIVUS LLC, priority 2015, published 2026).
Like-named read-outs stand apart in the source and are kept apart here.

What was measured:
[1] = cited from earlier work
[2] = cited from earlier work; remark: listed apart in the source
[3] = Solubility of tacrolimus in vehicles (shaken, filtered, HPLC); type: physicochemical
Procedure: The solubility of tacrolimus was obtained in Maisine® 35-1, sesame oil, Miglyol® 812, Caspmul MCM EP, Labrafil M 2125 CS, peceol, Capryol 90, Lauroglycol FCC, Span 80, caprylic acid, Transcutol HP, Tween 80 (polysorbate 80), Kolliphor EL (Cremophor EL), labrasol, Vitamin E TPGS, PEG 400, propylene glycol, ethanol, Phosal 50 PG, triethylcitrate, and PEG 3350. In general, tacrolimus (˜15 mg) was added to approximately 250 mg of the vehicles. After the first addition of the API, the mixtures were shaken in a temperature-controlled vortex mixer for 24 hours at 25° C. (50° C. for Vitamin E TPGS and 60° C. for PEG 3350) then examined for solid residues. If no residue was observed, further addition of API was performed until the total API added was ˜55 mg. After the final addition, samples were further shaken at temperature for at least 24 h. After the incubation, each sample was examined visually for solid residues. Suspensions were filtered using a centrifuge tube with 0.45 μm PVDF membrane filter (Millipore Durapore®). The thick filtrate was weighed in to a 5-mL volumetric flask and diluted to mark with the HPLC diluent. Biphasic mixtures were vialed, spun on a centrifuge, and the clear solution was separated from the oily phase. All samples were prepared protected from light.

C=CC[C@@H]1/C=C(\C)C[C@H](C)C[C@H](OC)[C@H]2O[C@@](O)(C(=O)C(=O)N3CCCC[C@H]3C(=O)O[C@H](/C(C)=C/[C@@H]3CC[C@@H](O)[C@H](OC)C3)[C@H](C)[C@@H](O)CC1=O)[C@H](C)C[C@@H]2OC (relative stereo) [Tacrolimus, [3S-[3R*[E(1S*,3S*,4S*)], 4S*,5R*,8S*,9E,12R*,14R*,15S*,16R*,18S*, 19S*,26-aR*]]-5,6,8,11,12,13,14,15,16,17,18,19,24,25,26a-hexadecahydro-5,19-dihydroxy-3-[2-(4-hydroxy-3-methoxycyclohexyl)-1-methylethenyl]-14,16-dimethoxy-4,10,12,18-tetramethyl-8-(2-propenyl)-15,19-epoxy-3H-pyrido [2,1-c][1,4]oxazacyclotricosine-1,7,20,21 (4H,23H)-tetrone, monohydrate]
solubility ([1]; in chloroform): very soluble
solubility ([1]; in ethanol): freely soluble
solubility ([1]; in methanol): very soluble
solubility ([1]; in water): practically insoluble
time to peak concentration ([2]; after oral administration): 0.5 to 4 h
volume of distribution (VolD) based on plasma ([2]; based on plasma): 5 to 65 L/kg of body weight
half-life for distribution ([2]; in vivo): 54 min
protein binding ([2]; in vivo): 75 to 99%
whole blood concentrations relative to plasma concentrations ([2]; in vivo): 12 to 67 times
bioavailability of the oral dosage form (range) ([2]; oral): 5 to 65%
mean bioavailability of the oral dosage form ([2]; oral): about 27%
solubility ([3]; in Capryol 90, 25° C.): > 56 mg of API per gram of solvent
solubility ([3]; in Caspmul MCM EP, 25° C.): > 56 mg of API per gram of solvent
solubility ([3]; in PEG 400, 25° C.): > 56 mg of API per gram of solvent
solubility ([3]; in PEG 3350, 60° C.): > 56 mg of API per gram of solvent
solubility ([3]; in Phosal 50 PG, 25° C.): > 56 mg of API per gram of solvent
solubility ([3]; in Vitamin E TPGS, 50° C.): > 56 mg of API per gram of solvent
solubility ([3]; in caprylic acid, 25° C.): > 56 mg of API per gram of solvent
solubility ([3]; in ethanol, 25° C.): > 56 mg of API per gram of solvent
solubility ([3]; in labrasol, 25° C.): > 56 mg of API per gram of solvent
solubility ([3]; in propylene glycol, 25° C.): > 56 mg of API per gram of solvent
solubility ([3]; in triethylcitrate, 25° C.): > 56 mg of API per gram of solvent
